Reference: US20100130493A1, “COMBINATION OF VEGF RECEPTOR TYROSINE KINASE INHIBITORS FOR TREATMENT OF CANCER” (priority 2002, published 2010)

How the values were obtained:
[1] = tested on: human A431 vulval carcinoma tumour xenografts; assay: Human A431 vulval carcinoma tumour xenografts in nude mice; settings: A431 xenograft; for Number of tumours regressing after 31 days of treatment (treatment from day 28 to day 59): tumour volume at day 59 smaller than pre-treatment value on day 28, regressing/total
Method: 5×10^6 A431 tumour cells in 0.1 ml of serum free Dulbecco's Modified Eagle's Medium (DMEM) were injected subcutaneously (s.c.) into the flank of each athymic (nu/nu genotype) mouse. Eleven days after inoculation tumours were excised and dissected to generate cubic tumour fragments of 0.5-1 mm^3, which were implanted into further nude mice for a therapy experiment. Tumour volumes were assessed by bilateral Vernier caliper measurement and, taking length to be the longest diameter across the tumour and width the corresponding perpendicular, calculated using the formula (length×width)×the square root of (length×width)×(π/6). […] In addition, the number of tumour regressions following 31 days of treatment was ascertained (tumour regression being evident if the tumour volume at day 59 was smaller than the pre-treatment value on day 28).

[2] = tested on: human LoVo colon tumour xenografts; assay: Human LoVo colon tumour xenografts in nude mice; settings: LoVo xenograft, p.o. daily days 0-14, ZD6474 6 mg/kg/day, ZD1839 50 mg/kg/day, or combination, versus control
Method: 10^7 LoVo tumour cells in 0.1 ml of serum free Dulbecco's Modified Eagle's Medium (DMEM) were injected subcutaneously (s.c.) into the flank of each athymic (nu/nu genotype) mouse. Tumor volumes were assessed by bilateral Vernier caliper measurement and, taking length to be the longest diameter across the tumor and width the corresponding perpendicular, calculated using the formula (length×width)×the square root of (length×width)×(π/6). […] A one-tailed two-sample t-test was used to evaluate the significance of tumour growth inhibition.

Row | SMILES | Number of tumours regressing after 31 days of treatment (treatment from day 28 to day 59) [1] | Mean % Inhibition of tumour growth following 21 days of treatment (treatment from day 28 to day 49) ([1]; nude mice, p.o., ZD6474 50 mg/kg/day, ZD1839 50 mg/kg/day, or combination, assessed day 49 versus control) | % tumour regression following 21 days of treatment (day 28 to day 49) ([1]; restatement of inhibition above 100% as regression, day 49) | % Inhibition of Tumour Growth at Day 14 [2] [%]
1 | COc1cc2ncnc(Nc3ccc(F)c(Cl)c3)c2cc1OCCCN1CCOCC1 [ZD1839, N-(3-chloro-4-fluorophenyl)-7-methoxy-6-(3-morpholinopropoxy)quinazolin-4-amine, reference compound] | 3/9 |  |  | 
2 | COc1cc2c(Nc3ccc(Br)cc3F)ncnc2cc1OCC1CCN(C)CC1 [ZD6474, 4-(4-bromo-2-fluoroanilino)-6-methoxy-7-(1-methylpiperidin-4-ylmethoxy)quinazoline] | 6/9 | 116% (P < 0.001) | (i.e. 16% tumour regression) | 38
